The results in this text go back to paper PMC4826176, “Identification of H7 as a novel peroxiredoxin I inhibitor to induce differentiation of leukemia cells” (Oncotarget, 2015).

In general, IC50 refers to the midpoint of a concentration-inhibition curve.

Assay [1] concerns the target T1, Prdx I (recombinant human peroxiredoxin I) (Homo sapiens, UniProt Q06830).
T1 construct: gene PRDX1; full-length, N-terminal His6 tag (pET28a), expressed in E. coli BL21, purified
T1 sequence (Q06830 2-199): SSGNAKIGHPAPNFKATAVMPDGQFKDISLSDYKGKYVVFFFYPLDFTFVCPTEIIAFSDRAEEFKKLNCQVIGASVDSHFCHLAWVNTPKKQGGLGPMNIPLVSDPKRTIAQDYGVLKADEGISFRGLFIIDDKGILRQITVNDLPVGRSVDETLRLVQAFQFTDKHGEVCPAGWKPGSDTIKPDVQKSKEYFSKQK
Briefly: surface plasmon resonance (Biacore T200), single-cycle kinetics. Type of assay: binding. Conditions: read-out: dissociation constant. The source says:
surface plasmon resonance (Biacore T200), single-cycle kinetics on Prdx I (recombinant human peroxiredoxin I) | H7 rapidly associated and disassociated from the immobilized Prdx I at a dissociation constant of […]

The target in assay [2] is T2, Prdx I (endogenous, NB4 cell lysate) (Homo sapiens, UniProt Q06830).
T2 construct: gene PRDX1; endogenous untagged protein in NB4 cell lysate, detected by Western blot
T2 sequence (Q06830 2-199): T1 sequence (Q06830 2-199)
Briefly: cellular thermal shift assay (CETSA) in lysate, Western blot. Conditions: NB4 lysate in PBS, heated 3 min at different temperatures (75.9°C for dose dependence). The format is biochemical.

In assay [3] the target is T1, Prdx I (recombinant human peroxiredoxin I). Briefly: peroxidase activity, Trx-Trx reductase-NADPH-coupled spectrophotometric assay. Type of assay: biochemical.

For the compound `CCc1ccc(S(=O)(=O)N=C2C=CC(=O)c3ccccc32)cc1` [H7], in assay [1], the Kd stood at 1.57 µM. Also, the “cellular thermal shift assay (CETSA) in lysate, Western blot” value in assay [2] is recorded as “addition of H7 but not DMSO into the cell lysates increased the stability of Prdx I”. For the same compound, the IC50 in assay [3] amounted to 7.85 µM.
